We go through one compound from patent publication US6355430B1, “Diagnostic and screening methods employing KIAA0101” (Millennium Pharmaceuticals, Inc., priority 1998, dated 2002).

The experiment deals with KIAA0101 expression in LNCaP cells. As to the kind of experiment: Expression of KIAA0101 in LNCaP prostate cancer cells treated with casodex. The class given is cell-based, human. On the procedure: In order to examine the effect of casodex, an anti-androgen, on the expression of KIAA0101, LNCaP cells (androgen-sensitive prostate cancer cells) were grown to 70% confluence in RPMI-1640 (10% FBS). The cultures were then pretreated for 24 hours in dye-free RPMI-1640 containing 5% charcoal stripped serum. The cultures were then treated with either 1 nM R1881 or 100 […] casodex in RPMI-1640 containing 5% charcoal stripped serum prior to harvesting and extraction of total mRNA for expression analysis.

`CC(O)(CS(=O)(=O)c1ccc(F)cc1)C(=O)Nc1ccc(C#N)c(C(F)(F)F)c1` (centres unmarked) [casodex]: for the setting “LNCaP cells (androgen-responsive prostate cancer cell line), in the presence of casodex”, the “decrease (drop) in KIAA0101 expression” value amounted to 3 fold. Moreover, the “KIAA0101 expression lower in the presence of casodex than in the presence of R1881” value (LNCaP cells, casodex versus R1881 (androgen agonist, 1 nM)) came to 3 fold.
